For data set [1], the system named is NT-2 testicular cancer cells. In words: Flow cytometric (propidium iodide) cell cycle analysis of NT-2 cells. It counts as cell-based. The conditions noted are these: 24h, compared with P1. On the procedure: FIG. 9: NT-2, testicular cancer cells, were incubated with Compound of formula (I) isomers for 24h and subjected to Flow Cytometric analysis to determine the alterations in cancer cell cycle. […] Therefore, only the P1 isomer of Compound of formula (I) was investigated further to determine its in vitro and in vivo efficacy.
The method for Propidium Iodide (PI) based cell cycle analysis was performed as per the instructions given by the manufacturer (AB139418; Abcam). Briefly NT-2 cells treated with Compound of formula (I) versions were harvested in single cell suspensions with each experimental condition containing two million cells, fixed in 66% Ethanol overnight at 4° C. The ethanol was removed thoroughly by centrifugation, followed by rehydration of cells in PBS with a repeat of centrifugation. Cells were stained in PI (1%) and RNase solution (1%) in PBS for 30 minutes at 37° C. in the dark. The cells were analyzed immediately on the Flow Cytometer.
Background: In flow cytometry, cells or beads pass a laser one at a time.

For data set [2], the target named is T1, Lin28A protein (Homo sapiens, UniProt Q9H9Z2).
T1 construct: in a panel of endogenously LIN28 expressing cancer cell models; endogenous in cells; host or cells: T47D, YP-MEL, BT-12, BT-37, NT-2 (NTERA)
T1 sequence (Q9H9Z2 1-209): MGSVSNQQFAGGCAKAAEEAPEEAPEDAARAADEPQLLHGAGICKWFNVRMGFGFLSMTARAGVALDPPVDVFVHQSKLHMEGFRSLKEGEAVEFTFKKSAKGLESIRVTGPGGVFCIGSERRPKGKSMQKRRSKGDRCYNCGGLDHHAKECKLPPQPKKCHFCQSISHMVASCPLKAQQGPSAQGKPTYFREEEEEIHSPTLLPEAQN
In words: Western blotting of Lin28A protein in cancer cell models. In kind it is cell-based. The conditions noted are these: YP-MEL, BT-37, NT-2 cells. The protocol: (§1) FIG. 5: Compound of formula (I) mixture, containing the two isomers (P1+P2) causes significant reduction in Lin28A protein from 5 μM onwards, in a panel of endogenously LIN28 expressing cancer cell models. […] LIN28A and LIN28B expression profile in pediatric CNS cancer cell lines, 96-hr post-treatment with Compound of formula (I). SDS-PAGE on 10% polyacrylamide gel of total cell lysates from untreated cells harvested at 80-90% confluency. Samples loaded with volumes for 20 μg protein. LIN28A and LIN28B proteins were detected using the anti-LIN28A antibody (#8706; Cell Signaling Technology) and anti-LIN28B antibody (#11965; Cell Signalling Technology) at 1:2000 dilutions. T47D: adult breast cancer (LIN28A expressing); YPMEL: malignant melanoma derived from Neurocutaneous Melanosis (NCM) (Lin28A and Lin28B expressing); BT-12: pediatric atypical-teratoid rhabdoid tumor (AT/RT).
FIG. 7A-C: To determine the differences in the biological activity of the two isomers (P1+P2) of Compound of formula (I), we tested the effects of purified and separated P1 and P2 isomers on the protein expression of Lin28A and Lin28B. (A) YP-MEL (NCM). (B) BT-37 (AT/RT). (C) NT-2 (NTERA) (Testicular cancer).
(§2) The proteins were extracted from the same samples as the RNA using the RIPA lysis buffer. The protein extracts (20 μg) were run on 10% SDS-PAGE and transferred on a nitrocellulose blotting membrane 0.22 μm (GE Healthcare) using the Trans-Blot® SD semi-dry transfer devise (Biorad). The proteins were detected using the anti-Lin28A antibody (#8706; Cell Signaling Technology), anti-Lin28B antibody (#11965, Cell Signaling Technology) the anti-beta-actin antibody at respectively 1:2000, 1:2000 and 1:5000 dilutions.
On the technique in general: A western blot detects proteins with antibodies after separation by electrophoresis.

Data set [3] in a line: Solubility. In kind it is physicochemical. The note with it: DMSO, organic solvent or mixture; read-out: solubility in DMSO.
The target of data set [4] is T2, LIN28B protein (Homo sapiens, UniProt Q6ZN17).
T2 construct: in a panel of endogenously LIN28 expressing cancer cell models; endogenous in cells; host or cells: YP-MEL, BT-12, BT-37, NT-2 (NTERA)
T2 sequence (Q6ZN17 1-250): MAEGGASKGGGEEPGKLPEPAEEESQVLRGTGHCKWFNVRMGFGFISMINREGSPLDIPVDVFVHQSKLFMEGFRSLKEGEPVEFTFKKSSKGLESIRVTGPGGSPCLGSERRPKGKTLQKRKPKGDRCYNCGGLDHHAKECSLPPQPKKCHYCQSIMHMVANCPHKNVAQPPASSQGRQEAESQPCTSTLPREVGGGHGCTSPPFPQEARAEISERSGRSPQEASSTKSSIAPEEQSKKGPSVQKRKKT
In words: Western blotting of Lin28B protein in cancer cell models. In kind it is cell-based. The conditions noted are these: YP-MEL, BT-37, NT-2 cells; at the tested dosages. The protocol:
as §1, with “(AT/RT). […]” for “(AT/RT).”
The proteins were extracted from the same samples as the RNA using the RIPA lysis buffer. […] The proteins were detected using the anti-Lin28A antibody (#8706; Cell Signaling Technology), anti-Lin28B antibody (#11965, Cell Signaling Technology) the anti-beta-actin antibody at respectively 1:2000, 1:2000 and 1:5000 dilutions.

For data set [5], the system named is stem cell tumor spheres. Nature of the data set: Stem cell tumor spheres, western blotting of stemness and differentiation markers. It counts as cell-based. On the procedure:
FIG. 12: Dose-dependent effect of Compound of formula (I) on the stem cell tumor spheres, in the presence of LIF—a pluripotency supplement used for maintenance of stem cell population (Panel A). As determined by western blotting, Compound of formula (I) begins to halt the expression of stemness markers (Nestin, LIN28A, Oct-4) and induces elevation of differentiation markers (GFAP), from 1 μM onwards (Panel B).
as §2

The test system of data set [6] is LIN28A-positive cancer cell models. In words: Alamar Blue cell viability, LIN28A-positive versus LIN28B-expressing cancer cell models. In kind it is cell-based. The conditions noted are these: relative to LIN28B-expressing cancer cell models. On the procedure: FIG. 6: Cells were cultured in the presence of the Compound of formula (I) (P1+P2) at increasing concentrations and cell viability was evaluated using Alamar Blue dye and measurement at Excitation of 550 nm and Emission of 590 nm. All the data shown are representative of three replicates. […] LIN28A and LIN28B expression in the presence of Compound of formula (I) correlates with the sensitivity of cells to this inhibitor.
FIG. 8A-F: Cells were cultured in the presence of the Compound of formula (I) (versions P1, P2 or P1+P2 at equipotent doses) at increasing concentrations and cell viability was evaluated using Alamar Blue dye and measurement at Excitation of 550 nm and Emission of 590 nm. All the data shown are representative of three replicates. […] A. NT-2 cell viability. B. YP-MEL cell viability. C. WI-38 cell viability. D. T47D cell viability. E. BT-12 cell viability. F. summary of Lin28A and Lin28B status.
FIG. 8A-F. Cells were cultured in the presence of the Compound of formula (I) (versions P1, P2 or P1+P2 at equipotent doses) at increasing concentrations and cell viability was evaluated using Alamar Blue dye and measurement at Excitation of 550 nm and Emission of 590 nm. All the data shown are representative of three replicates. […] A. NT-2 cell viability. B. YP-MEL cell viability. C. WI-38 cell viability. D. T47D cell viability. E. BT-12 cell viability. […]
Background: The colour change of resazurin is a common sign of viable cells or microbes.

The test system of data set [7] is let-7a miRNA. Nature of the data set: Taqman miRNA qRT-PCR of let-7a. In kind it is cell-based. On the procedure: FIG. 11: Compound of formula (I) lead to successful rescue of pre-Iet-7a and their maturation to miRNA let-7a tumor suppressor, only at 1 μM.
Total RNA was extracted using the RNeasy kit (74104, Qiagen). TaqMan® qRT-PCR was performed using standard reagents from Life Technologies (TaqMan® MicroRNA Assay: hsa-let-7a: 000377). The RT was performed using the TaqMan® primers from MicroRNA Assays and the TaqMan® MicroRNA Reverse Transcription Kit (4366596, Life technologies) with 20 ng total RNA. The PCR was performed in a LightCycler 480 instrument with GoTaq® Probe qPCR Master mix (A6102, Promega) according to the manufacturer's protocol. Each reaction was carried out in three technical replicates.

Data set [8] deals with BHQ1-pre-let7a and EGFP-Lin28A bound complexes. In words: FRET assay, displacement of BHQ1-pre-let7a from EGFP-Lin28A. It counts as binding. The conditions noted are these: at 100 μM. On the procedure: This method was adapted from Roos et al (2016). HEK 293-T cells (ATCC) were cultured as monolayers in DMEM GlutaMAX™-1 (Cat #31966-021, Gibco®, Life Technologies) supplemented with 10% of FBS (fetal bovine serum). Stable EGFP-Lin28A HEK 293-T cells were cultured as monolayers in DMEM supplemented with 10% of FBS (fetal bovine serum) and 0.5 mg/ml Geneticin G418 (10131-035, Life Technologies). Transfections were performed according to the manufacturer's protocol with […] (12252-011, Invitrogen, Life Technologies) for siRNAs and JetPEI (101-10, Polyplus transfections) was used for plasmid DNA. […]
160,000 HEK 293 T cells were seeded per well in 6 well plates and transfected with 320 ng pEGFP-C2-Lin28A plasmid according to the experimental setup with the reagents described above and cells were allowed to recover for 48h. […] The EGFP-lin28A| expressing cells were sorted using Fluorescence Activated Cell Sorting (FACS). Finally, larger colonies of individual clones were analyzed for expression levels of EGFP-Lin28A by performing the FRET assay. […]
FRET system (EGFP-Lin28A and 19B-let7a) treated with DMSO was used as positive control. […] The FRET measurements were obtained from the optimized fluorescence parameter. […] The average signal intensity and background fluorescence were corrected with compound self-fluorescence with and without binding buffer.

Some results are limits rather than exact numbers.

What is called solubility is how much of the substance goes into solution per volume.

For the molecule `CCC(C)C(NC(=O)C(Cc1ncc[nH]1)NC(=O)c1cccc(C(N)=O)c1)C(=O)Nc1ccc(O)c(-c2nc3ccccc3s2)c1` (centres unmarked) [Compound P2], the “triggering of cancer cell death / changes in cancer cell viability” value in data set [1] is “failed to cause any significant changes”. In data set [2], the “effect on the expression levels of Lin28A” value is “no effect”. Moreover, the solubility in data set [3] was less than 1000 µg/mL. In addition, in data set [4], the Lin28B expression result is listed as “remained unaltered”.

Turning to `CC[C@H](C)[C@H](NC(=O)[C@H](Cc1ncc[nH]1)NC(=O)c1cccc(C(N)=O)c1)C(=O)Nc1ccc(O)c(-c2nc3ccccc3s2)c1` [Compound of formula (I)], the “effect on stemness and differentiation markers in the stem cell population” value in data set [5] is “dose dependent reduction of sternness markers and elevation of differentiation markers”. The “concentration from which stemness markers (Nestin, LIN28A, Oct-4) are halted and differentiation markers (GFAP) elevated” value in data set [5] (in the presence of LIF, western blotting) is not below 1 µM. In data set [6], the “sensitivity of LIN28A-positive cancer cell models” value is listed as “heightened sensitivity”. Further, the “concentration giving rescue of pre-let-7a and maturation to miRNA let-7a” value in data set [7] stood at 1 µM. For the same molecule, the “upregulation of let-7a” value in data set [7] (Lin28B expressing BT-12 cells, relative to RNU6B) was “only minor upregulation”. Besides, the “expression of let-7a miRNA tumor suppressor” value in data set [7] (YP-MEL, T47D, A549 cells, relative to RNU6B) is reported as “increase in the expression”.

Consider `CC(=O)N(C)c1cccc(-c2ccc3nnc(C)n3n2)c1` [c1632, reference compound], for which the “FRET reduction compared with 70% by Compound of formula (I)” value in data set [8] was “equivalent FRET reduction”.

The values above are taken from patent US20230391824A1, “RATIONALE, DESIGN, SYNTHESIS AND VALIDATION OF A SMALL MOLECULE ANTICANCER AGENT” (priority 2021, published 2023).
